Test results: patent publication US20240368174A1, “Antiviral Heterocyclic Compounds” (Enanta Pharmaceuticals, Inc., priority 2023, published 2024)

The compounds below were run on HMPV clinical isolate A2 strain TN 94-49 (assay: HMPV antiviral assay, Method 2 (LLC-MK2 cells with CP-100-356, ATP-Lite)). Details: human metapneumovirus; hMPV A2 TN/94-49, LLC-MK2 cells with CP-100-356, Method 2.
Format: cell-based
Description: In vitro HMPV antiviral activity was evaluated using the clinical isolate A2 strain TN 94-49 (obtained from Dr. John Williams, Vanderbilt University, Tennessee) and LLC-MK2 cells (Millipore Sigma CB_85062804), an immortalized kidney epithelial cell line from Macaca mulatta. Compounds were resuspended in dimethyl sulfoxide (DMSO) at 10 mM, serially diluted and added to a 384-well source plate. Subsequently, the compounds were diluted and transferred onto 384-well assay plates using the Echo-650 automated liquid handling system (Beckman Coulter, Indiana). The test compounds were assessed in duplicate at a top concentration of 200 nM followed by 2.5-fold serial dilutions to give a total of 10 concentration points. DMSO control wells were also included on the assay plates and were either infected or not, acting as positive and negative controls. A2 TN 94-49 virus infections were performed in-suspension with LLC-MK2 cells. The cells were washed twice with PBS and removed from the cell-culture flask with 0.25% trypsin-EDTA (Thermo Fisher Scientific, MA). The trypsin-EDTA was inactivated by resuspending in 2% fetal bovine serum (FBS) and OptiMEM (ThermoFisher Scientific, MA) containing 1% antibiotic-antimycotic. Cells were pelleted by centrifuging for 5 minutes at 800 rpm, the supernatant was removed, and cells were re-suspended and washed in PBS plus 100 μg/mL CaCl2). This step was performed twice. Cells were then re-suspended in serum-free (SF)-OptiMEM containing 4 μg/mL TPCK-Trypsin (Sigma Aldrich, MO), 1% antibiotic-antimycotic (ThermoFisher Scientific, MA), 100 μg/mL CaCl2), and 4 μM of CP-100-356, a P-glycoprotein inhibitor. Cells were counted and seeded at a density of 5,000 cells/well, 12.5 μL/well. Virus infections were done at a multiplicity of infection (MOI) of 0.16 with 12.5 μL added per well. Virus infections were performed in infection media which contained SF-OptiMEM, 100 μg/mL CaCl2) and 1% antibiotic-antimycotic. HMPV viral stocks are suspended in infection media+5% glycerol, thus an equal volume of infection media+5% glycerol was added to uninfected wells to equalize the final % glycerol across all wells of the assay plate. The final concentration of TPCK-trypsin was 2 μg/mL. The final concentration of CP-100-356 was 2 μM. The assay plates were incubated at 37° C., 5% CO2 for 7 days. After 7 days incubation, 12.5 μL of ATP-Lite (PerkinElmer, MA) was added to each well and the raw luminescence values were determined using the Envision 2104 (Perkin Elmer, MA). The average of the raw luminescence values for the cells and virus only positive control wells was subtracted from all conditions tested and the percent cell health was determined by dividing these values by the average of the cells only negative control wells. EC50 values were then calculated by non-linear regression using a four-parameter curve logistic equation. The curve fit model employed was XLFit Dose Response One Site Model 200: y=(A+(B/(1+((x/C)^D)))), where A is the minimum y value, B is the maximum y value, C is the log EC50 value, and D is the slope factor.

Q: With `COc1cc(C(=O)NC[C@@](O)(c2ccccc2)c2cc3c(c(-c4cc(Cl)c(F)cc4F)n2)OC[C@]3(C)C(N)=O)cc2c1OCCC2` [Example 93] as the compound, how does the EC50 read?
A: > 200 nM

Q: With `COc1cc(OC)c2cc(C(=O)NC[C@@](O)(c3ccccc3)c3cc4c(c(-c5cc(Cl)c(F)cc5F)n3)OC[C@]4(C)C(N)=O)[nH]c2c1` [Example 94] as the compound, how does the EC50 read?
A: > 200 nM

Q: With `COc1cc(C(=O)NC[C@@](O)(c2ccccc2)c2cc3c(c(-c4cccc(Cl)c4Cl)n2)OC[C@]3(C)C(N)=O)cc2oc(C)nc12` [Example 95] as the compound, how does the EC50 read?
A: < 200 nM

Q: With `COc1cc(C(=O)NC[C@@](O)(c2ccccc2)c2cc3c(c(-c4cccc(Cl)c4Cl)n2)OC[C@]3(C)C(N)=O)cc2oc(C3CC3)nc12` [Example 96] as the compound, how does the EC50 read?
A: < 200 nM

Q: `C[C@]1(C(N)=O)COc2c1cc([C@@](O)(CNC(=O)c1ccc3nc(C4CC4)oc3c1)c1ccccc1)nc2-c1cccc(Cl)c1Cl` [Example 97] was tested. Which EC50 did it give?
A: < 200 nM

Q: For `C[C@]1(C(N)=O)COc2c1cc([C@@](O)(CNC(=O)c1cc(OC3CC3)c3nn(C4CC4)cc3c1)c1ccccc1)nc2-c1cc(Cl)c(F)cc1F` [Example 98], which EC50 is on record?
A: < 200 nM

Q: Which EC50 does the source give for `C[C@]1(C(N)=O)COc2c1cc([C@@](O)(CNC(=O)c1cc(Cl)c3nn(C4CC4)cc3c1)c1ccccc1)nc2-c1cc(Cl)c(F)cc1F` [Example 99] here?
A: < 200 nM

Q: `C[C@]1(C(N)=O)COc2c1cc([C@@](O)(CNC(=O)c1cc(F)c3nn(C4CC4)cc3c1)c1ccccc1)nc2-c1cc(Cl)c(F)cc1F` [Example 100] was tested. Which EC50 did it give?
A: < 200 nM

Q: For `C[C@]1(C(N)=O)COc2c1cc([C@@](O)(CNC(=O)c1ccc3nn(C4CC4)cc3c1)c1ccccc1)nc2-c1cc(Cl)c(F)cc1F` [Example 101], which EC50 is on record?
A: < 200 nM

Q: For `COc1cc(C(=O)NC[C@](O)(c2cc3c(c(-c4cc(F)c(F)cc4F)n2)OC[C@]3(C)C(N)=O)C2CC2)cc2cc(Cl)cnc12` [Example 103], which EC50 is on record?
A: < 200 nM

Q: How did the EC50 turn out when `C[C@]1(C(N)=O)COc2c1cc([C@@](O)(CNC(=O)c1cc(OC3CC3)c3ncc(Cl)cc3c1)C1CC1)nc2-c1cc(F)c(F)cc1F` [Example 104] was run?
A: < 200 nM

Q: With `[2H]C([2H])([2H])NC(=O)[C@@]1(C)COc2c1cc([C@@](O)(CNC(=O)c1cc(OC)c3nn(C4(F)CC4)cc3c1)c1ccccc1)nc2-c1cc(Cl)c(F)cc1F` [Example 109] as the compound, how does the EC50 read?
A: < 200 nM

Q: Which EC50 does the source give for `[2H]C([2H])([2H])NC(=O)[C@@]1(C)COc2c1cc([C@@](O)(CNC(=O)c1cc(OC)c3nc(C4CC4)oc3c1)c1ccccc1)nc2-c1cc(Cl)c(F)cc1F` [Example 110] here?
A: < 200 nM

Q: `C[C@]1(C(N)=O)COc2c1cc([C@@](O)(CNC(=O)c1cc(OC3CC3)c3nn(C4(F)CC4)cc3c1)C1CC1)nc2-c1ccc(F)c(Cl)c1` [Example 112] was tested. Which EC50 did it give?
A: < 200 nM

Q: `COc1cc(C(=O)NC[C@@](O)(c2ccccc2)c2cc3c(c(-c4cc(Cl)c(F)cc4F)n2)OC[C@]3(C)C(N)=O)cc2cc(Cl)nnc12` [Example 113] was tested. Which EC50 did it give?
A: < 200 nM

Q: `COc1cc(C(=O)NC[C@@](O)(c2ccccc2)c2cc3c(c(-c4cc(Cl)c(F)cc4F)n2)OC[C@]3(C)C(N)=O)cn2cc(C3CC3)nc12` [Example 115] was tested. Which EC50 did it give?
A: < 200 nM

Q: `C[C@]1(C(N)=O)COc2c1cc([C@@](O)(CNC(=O)c1cc(Cl)c3[nH]ncc3c1)c1ccccc1)nc2-c1cc(Cl)c(F)cc1F` [Example 117] was tested. Which EC50 did it give?
A: > 200 nM

Q: How did the EC50 turn out when `Cc1cc(C(=O)NC[C@@](O)(c2ccccc2)c2cc3c(c(-c4cc(Cl)c(F)cc4F)n2)OC[C@]3(C)C(N)=O)cc2cn[nH]c12` [Example 118] was run?
A: < 200 nM

Q: Which EC50 does the source give for `Cc1cc(C(=O)NC[C@](O)(c2cc3c(c(-c4cc(F)c(F)cc4F)n2)OC[C@]3(C)C(N)=O)C2CC2)cc2cn[nH]c12` [Example 120] here?
A: > 200 nM

Q: For `COc1cc(C(=O)NC[C@](O)(c2cc3c(c(-c4ccnc(F)c4)n2)OC[C@]3(C)C(N)=O)C2CC2)cc2cn(C3CC3)nc12` [Example 121], which EC50 is on record?
A: > 200 nM

Q: With `C[C@]1(C(N)=O)COc2c1cc([C@@](O)(CNC(=O)c1cc(OCCO)c3nn(C4CC4)cc3c1)C1CC1)nc2-c1cc(Cl)c(F)cc1F` [Example 126] as the compound, how does the EC50 read?
A: < 200 nM

Q: Which EC50 does the source give for `Cc1nc2c(OC(F)F)cc(C(=O)NC[C@](O)(c3cc4c(c(-c5cc(Cl)c(F)cc5F)n3)OC[C@]4(C)C(N)=O)c3ccccc3F)cc2cc1Br` [Example 139] here?
A: > 200 nM

Q: With `COc1cc(C(=O)NC[C@@](O)(c2ccncc2)c2cc3c(c(-c4cc(Cl)c(F)cc4F)n2)OC[C@]3(C)C(N)=O)cc2cn(C3CC3)nc12` [Example 152] as the compound, how does the EC50 read?
A: < 200 nM

Q: How did the EC50 turn out when `COc1cc(C(=O)NC[C@@](O)(c2cnn(C)c2)c2cc3c(c(-c4cc(Cl)c(F)cc4F)n2)OC[C@]3(C)C(N)=O)cc2cn(C3CC3)nc12` [Example 153] was run?
A: > 200 nM

Q: Which EC50 does the source give for `COc1cc(C(=O)NC[C@@](O)(c2cccc(F)n2)c2cc3c(c(-c4cc(Cl)c(F)cc4F)n2)OC[C@]3(C)C(N)=O)cn2cc(C3CC3)nc12` [Example 154] here?
A: < 200 nM

Q: How did the EC50 turn out when `Cc1nc2c(OC(F)(F)F)cc(C(=O)NC[C@@](O)(c3ccccc3)c3cc4c(c(-c5cc(Cl)c(F)cc5F)n3)OC[C@]4(C)C(N)=O)cc2s1` [Example 188] was run?
A: > 200 nM

Q: For `Cc1nc2c(OC3CC3)cc(C(=O)NC[C@@](O)(c3ccccc3)c3cc4c(c(-c5cc(Cl)c(F)cc5F)n3)OC[C@]4(C)C(N)=O)cc2s1` [Example 189], which EC50 is on record?
A: < 200 nM

Q: `C[C@]1(C(N)=O)COc2c1cc([C@@](O)(CNC(=O)c1cc(OC3CC3)c3nc(C4CC4)sc3c1)c1ccccc1)nc2-c1cc(Cl)c(F)cc1F` [Example 190] was tested. Which EC50 did it give?
A: > 200 nM

Q: For `C[C@]1(C(N)=O)COc2c1cc([C@@](O)(CNC(=O)c1cc(OC3CC3)n3nc(C4CC4)cc3c1)c1ccccc1)nc2-c1cc(Cl)c(F)cc1F` [Example 191], which EC50 is on record?
A: < 200 nM

Q: For `Cc1nc2ccc(C(=O)NC[C@@](O)(c3ccccc3)c3cc4c(c(-c5cc(F)c(F)cc5F)n3)OC[C@]4(C)C(N)=O)cc2o1` [Example 192], which EC50 is on record?
A: < 200 nM

Q: How did the EC50 turn out when `COc1cc(C(=O)NC[C@@](O)(c2ccccc2)c2cc3c(c(-c4cc(F)c(F)cc4F)n2)OC[C@]3(C)C(N)=O)cc2oc(C)nc12` [Example 193] was run?
A: < 200 nM

Q: With `C[C@]1(C(N)=O)COc2c1cc([C@@](O)(CNC(=O)c1ccc3nc(C4CC4)oc3c1)c1ccccc1)nc2-c1cc(F)c(F)cc1F` [Example 194] as the compound, how does the EC50 read?
A: < 200 nM

Q: How did the EC50 turn out when `COc1cc(C(=O)NC[C@@](O)(c2ccccc2)c2cc3c(c(-c4cc(F)c(F)cc4F)n2)OC[C@]3(C)C(N)=O)cc2oc(C3CC3)nc12` [Example 195] was run?
A: < 200 nM

Q: `C[C@]1(C(N)=O)COc2c1cc([C@@](O)(CNC(=O)c1cc(OC3CC3)c3ncc(Cl)cc3c1)c1ccccc1)nc2-c1cc(Cl)c(F)cc1F` [Example 196] was tested. Which EC50 did it give?
A: < 200 nM

Q: For `C[C@]1(C(N)=O)COc2c1cc([C@@](O)(CNC(=O)c1cc(OC3CC3)c3ncc(Cl)cc3c1)c1ccccc1)nc2-c1cc(F)c(F)cc1F` [Example 197], which EC50 is on record?
A: < 200 nM

Q: For `COc1cc(C(=O)NC[C@@](O)(c2ccccc2)c2cc3c(c(-c4cc(F)c(F)cc4F)n2)OC[C@]3(C)C(N)=O)cc2cc(Cl)cnc12` [Example 198], which EC50 is on record?
A: < 200 nM

Q: `C[C@]1(C(N)=O)COc2c1cc([C@@](O)(CNC(=O)c1ccc3nc(C4CC4)oc3c1)c1ccccc1)nc2-c1ccc2c(c1)OC(F)(F)O2` [Example 199] was tested. Which EC50 did it give?
A: > 200 nM

Q: For `COc1cc(C(=O)NC[C@@](O)(c2ccccc2)c2cc3c(c(-c4ccc5c(c4)OC(F)(F)O5)n2)OC[C@]3(C)C(N)=O)cc2oc(C3CC3)nc12` [Example 200], which EC50 is on record?
A: < 200 nM

Q: `COc1cc(C(=O)NC[C@@](O)(c2ccccc2)c2cc3c(c(-c4ccc5c(c4)OC(F)(F)O5)n2)OC[C@]3(C)C(N)=O)cc2oc(C)nc12` [Example 201] was tested. Which EC50 did it give?
A: < 200 nM

Q: `COc1cc(C(=O)NC[C@@](O)(c2ccccc2)c2cc3c(c(-c4ccc5c(c4)OC(F)(F)O5)n2)OC[C@]3(C)C(N)=O)cc2cc(Cl)cnc12` [Example 202] was tested. Which EC50 did it give?
A: < 200 nM

Q: For `COc1cc(C(=O)NC[C@@](O)(c2cccc(F)n2)c2cc3c(c(-c4cc(Cl)c(F)cc4F)n2)OC[C@]3(C)C(N)=O)cc2cn(C3CC3)nc12` [Example 203], which EC50 is on record?
A: < 200 nM

Q: Which EC50 does the source give for `COc1cc(C(=O)NC[C@@](O)(c2cccc(F)n2)c2cc3c(c(-c4cc(Cl)c(F)cc4F)n2)OC[C@]3(C)C(N)=O)cc2cn(C3(F)CC3)nc12` [Example 204] here?
A: < 200 nM

Q: With `COc1cc(C(=O)NC[C@@](O)(c2cccc(F)n2)c2cc3c(c(-c4cc(Cl)c(F)cc4F)n2)OC[C@]3(C)C(N)=O)cc2cn(C(F)F)nc12` [Example 205] as the compound, how does the EC50 read?
A: < 200 nM
